Measurements published in patent publication US11051515B2, “3-acyl-benzamides and their use as herbicides” (Bayer Aktiengesellschaft, priority 2017, dated 2021).

Columns and labels:
[1] = tested on: ALOMY; assay: Pre-emergence action against ALOMY; assay type: in vivo, Alopecurus myosuroides; details: Alopecurus myosuroides, 504 h; dosage 320 g/ha; pre-emergence; scored visually after 3 weeks vs untreated controls; 100% = plants have died, 0% = like control plants; read-out: Pre-emergence action against ALOMY (herbicidal activity in percent)
In short: (§1)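 Seeds sown in sandy loam in wood-fiber pots and covered with soil. Greenhouse growth; visual damage scored after 3 weeks versus untreated controls (100% = dead, 0% = like control).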

[2] = tested on: AVEFA; assay: Pre-emergence action against AVEFA; assay type: in vivo, Avena fatua; details: Avena fatua, 504 h, dosage 320 g/ha, scored visually after 3 weeks vs untreated controls, read-out: Pre-emergence action against AVEFA (herbicidal activity)
In short: as §1

[3] = tested on: CYPES; assay: Pre-emergence action against CYPES; assay type: in vivo, Cyperus esculentus
In short: as §1

[4] = tested on: ECHCG; assay: Pre-emergence action against ECHCG; assay type: in vivo, Echinochloa crus-galli; details: Echinochloa crus-galli, 504 h; pre-emergence, dosage 320 g/ha, scored visually after 3 weeks vs untreated controls; read-out: Pre-emergence action against ECHCG (herbicidal activity)
In short: as §1

[5] = tested on: SETVI; assay: Pre-emergence action against SETVI; assay type: in vivo, Setaria viridis; details: for pest or weed control at 320 g/ha: Setaria viridis, 504 h, pre-emergence, dosage 320 g/ha, scored visually after 3 weeks vs untreated controls, read-out: SETVI (Table B8, pre-emergence herbicidal activity)
In short: as §1

[6] = tested on: AMARE; assay: Pre-emergence action against AMARE; assay type: in vivo, Amaranthus retroflexus; details: Amaranthus retroflexus, 504 h; pre-emergence, dosage 320 g/ha, scored visually after 3 weeks vs untreated controls; read-out: Pre-emergence action against AMARE (herbicidal activity)
In short: as §1

[7] = tested on: PHBPU; assay: Pre-emergence action against PHBPU; assay type: in vivo, Pharbitis purpurea; details: for pest or weed control at 320 g/ha: Ipomoea purpurea, 504 h, Dosage 320 g/ha, pre-emergence
In short: as §1

[8] = tested on: POLCO; assay: Pre-emergence action against POLCO; assay type: in vivo, Polygonum convolvulus; details: for pest or weed control at 320 g/ha: Fallopia convolvulus, 504 h, Dosage 320 g/ha, pre-emergence
In short: as §1

[9] = tested on: STEME; assay: Pre-emergence action against STEME; assay type: in vivo, Stellaria media; details: Stellaria media, 504 h; Dosage 320 g/ha, pre-emergence
In short: as §1

[10] = tested on: VIOTR; assay: Pre-emergence action against VIOTR; assay type: in vivo, Viola tricolor; details: for pest or weed control at 320 g/ha: Viola tricolor, 504 h, Dosage 320 g/ha, pre-emergence
In short: as §1

[11] = tested on: ALOMY; assay: Post-emergence action against ALOMY; assay type: in vivo, Alopecurus myosuroides; details: for pest or weed control at 80 g/ha: Alopecurus myosuroides, 504 h, Dosage 80 g/ha, post-emergence
In short: (§2)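 Post-emergence foliar spray on greenhouse plants at the one-leaf stage, using wettable-powder or emulsion-concentrate formulations in water (600 to […], plus 0.2% wetting agent). Damage scored by eye roughly 3 weeks later against untreated plants: 0% = like control, 100% = dead.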

[12] = tested on: AVEFA; assay: Post-emergence action against AVEFA; assay type: in vivo, Avena fatua; details: for pest or weed control at 80 g/ha: Avena fatua, 504 h, post-emergence, dosage 80 g/ha, visual assessment about 3 weeks after treatment vs untreated controls, read-out: Post-emergence action against AVEFA (herbicidal action in percent)
In short: as §2

[13] = tested on: SETVI; assay: Post-emergence action against SETVI; assay type: in vivo, Setaria viridis; details: for pest or weed control at 80 g/ha: Setaria viridis, 504 h, post-emergence, dosage 80 g/ha, visual assessment about 3 weeks after treatment vs untreated controls, read-out: Post-emergence action against SETVI (herbicidal action in percent)
In short: as §2

[14] = tested on: ABUTH; assay: Post-emergence action against ABUTH; assay type: in vivo, Abutilon theophrasti; details: Abutilon theophrasti, 504 h; post-emergence, dosage 80 g/ha, visual assessment about 3 weeks after treatment vs untreated controls; read-out: Post-emergence action against ABUTH (herbicidal action in percent)
In short: as §2

[15] = tested on: AMARE; assay: Post-emergence action against AMARE; assay type: in vivo, Amaranthus retroflexus; details: Amaranthus retroflexus, 504 h; post-emergence, dosage 80 g/ha, visual assessment about 3 weeks after treatment vs untreated controls; read-out: Post-emergence action against AMARE (herbicidal action in percent)
In short: as §2

[16] = tested on: STEME; assay: Post-emergence action against STEME; assay type: in vivo, Stellaria media; details: for pest or weed control at 80 g/ha: Stellaria media, 504 h, post-emergence, dosage 80 g/ha
In short: as §2

[17] = tested on: VERPE; assay: Post-emergence action against VERPE; assay type: in vivo, Veronica persica; details: Veronica persica, 504 h, dosage 80 g/ha
In short: as §2

[18] = tested on: VERPE; assay: Pre-emergence action against VERPE; assay type: in vivo, Veronica persica; details: Veronica persica, 504 h; Dosage 320 g/ha, pre-emergence
In short: as §1

[19] = tested on: POLCO; assay: Post-emergence action against POLCO; assay type: in vivo, Polygonum convolvulus; details: Fallopia convolvulus, 504 h; post-emergence, dosage 80 g/ha
In short: as §2

[20] = Table V6, pre-emergence, 80 g of a.i./ha
[21] = Table V9, pre-emergence, 80 g of a.i./ha
[22] = Table V18, post-emergence, 20 g of a.i./ha

| SMILES | pest or weed control at 320 g/ha [1] | pest or weed control at 320 g/ha [2] | pest or weed control at 320 g/ha [4] | pest or weed control at 320 g/ha [5] | pest or weed control at 320 g/ha [6] | pest or weed control at 320 g/ha [9] | pest or weed control at 320 g/ha [10] | pest or weed control at 80 g/ha [11] | pest or weed control at 80 g/ha [12] | pest or weed control at 80 g/ha [13] | pest or weed control at 80 g/ha [14] | pest or weed control at 80 g/ha [15] | pest or weed control at 80 g/ha [16] | pest or weed control at 80 g/ha [17] | pest or weed control at 320 g/ha [7] | pest or weed control at 320 g/ha [8] | pest or weed control at 320 g/ha [18] | pest or weed control at 80 g/ha [19] | further results |
| --- | --- | --- | --- | --- | --- | --- | --- | --- | --- | --- | --- | --- | --- | --- | --- | --- | --- | --- | --- |
| Cc1c(C(=O)Nc2nnnn2C)ccc(S(C)(=O)=O)c1C(=O)C1CC1 [1-9] | 90% | 80% | 100% | 100% | 100% | 80% | 100% | 100% | 100% | 100% | 90% | 90% | 100% | 100% | – | – | – | – | pest or weed control at 320 g/ha ([3]; Cyperus esculentus, 504 h, pre-emergence, dosage 320 g/ha, scored visually after 3 weeks vs untreated controls, read-out: Pre-emergence action against CYPES (herbicidal activity)): 80%; Herbicidal efficacy against CYPES [3, 20]: 70; Herbicidal efficacy against SETVI [5, 21]: 100; Herbicidal efficacy against PHBPU [7, 20]: 60; Herbicidal efficacy against POLCO [8, 20]: 40; Herbicidal efficacy against VIOTR ([10]; Table V7, pre-emergence, 20 g of a.i./ha): 70; Herbicidal efficacy against VIOTR [10, 21]: 100; Herbicidal efficacy against ALOMY [11, 22]: 80; Herbicidal efficacy against AVEFA [12, 22]: 80; Herbicidal efficacy against SETVI [13, 22]: 100; Herbicidal efficacy against STEME [16, 22]: 100 |
| CCC(=O)c1c(C(F)F)ccc(C(=O)Nc2nnnn2C)c1Cl [1-165] | 100% | 100% | 100% | 100% | 100% | 100% | 100% | 90% | 90% | 100% | 90% | 90% | 100% | 90% | 100% | 90% | 100% | 100% | – |
| CCCC(=O)c1c(C(F)(F)F)ccc(C(=O)Nc2nnnn2C)c1C [1-16] | 90% | 90% | 100% | 100% | 100% | 100% | 100% | 90% | 90% | 90% | 100% | 100% | 100% | 90% | 90% | 80% | 100% | 100% | – |
| Cn1nnnc1NC(=O)c1ccc(C(F)(F)F)c(C(=O)C2CC2)c1C1CC1 [1-233] | 100% | 100% | 100% | 100% | 100% | 100% | 100% | 90% | 90% | 90% | 100% | 90% | 90% | 100% | 100% | 80% | 100% | 90% | – |
